# Data reported in patent US20230085307A1, “PYRIDAZINONE COMPOUND AND HERBICIDE” (NISSAN CHEMICAL CORPORATION, priority 2019, published 2023).
# Columns and labels:
# persian speedwell [1] = test: Test Example 5: herbicidal effect by foliage application, plastic box (Table 20, symbol R); type: in vivo, Persian speedwell (Veronica persica)
# Summary of the method: (§1)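 Plants sown in sterilized diluvial soil and grown 14 days in a greenhouse at 25° C to 30° C, then sprayed on the foliage with the compound's emulsion diluted in water to a predetermined herbicide amount. Injury to weeds and crops scored three weeks after application on a visual rating scale.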
# velvetleaf [2] = test: Test Example 5: herbicidal effect by foliage application, plastic box (Table 20, symbol M); type: in vivo, velvetleaf (Abutilon theophrasti)
# Summary of the method: as §1
# barnyard grass [3] = test: Test Example 3: herbicidal effect by foliage application, Wagner pot (Table 18, symbol H); type: in vivo, barnyard grass (Echinochloa crus-galli); conditions: 320 g/ha
# Summary of the method: (§2)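 Plants were sown in alluvial soil held under 0.1–0.5 cm standing water and grown 14 days in a greenhouse at 25–30 °C. An emulsifiable formulation, water-diluted to the set dose, was then sprayed onto the foliage, and effects were scored three weeks later using previously defined criteria.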
# lambsquarters [4] = test: Test Example 4: herbicidal effect by soil treatment (Table 19, symbol O); type: in vivo, lambsquarters (Chenopodium album)
# Summary of the method: (§3)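 Three weeks of greenhouse growth at 25° C. to 30° C. followed a uniform surface spray of water-diluted emulsion at a predetermined herbicide amount. Seeds had been sown beforehand under about 1.5 cm of sterilized diluvial soil. Grading followed criteria set out in an earlier test.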
# barnyard grass [5] = test: Test Example 4: herbicidal effect by soil treatment (Table 19, symbol H); type: in vivo, barnyard grass (Echinochloa crus-galli)
# Summary of the method: as §3
# green foxtail [6] = test: Test Example 4: herbicidal effect by soil treatment (Table 19, symbol G); type: in vivo, green foxtail (Setaria viridis)
# Summary of the method: as §3
# redroot pigweed [7] = test: Test Example 4: herbicidal effect by soil treatment (Table 19, symbol N); type: in vivo, redroot pigweed (Amaranthus retroflexus)
# Summary of the method: as §3
# Italian ryegrass [8] = test: Test Example 4: herbicidal effect by soil treatment (Table 19, symbol K); type: in vivo, Italian ryegrass (Lolium multiflorum)
# Summary of the method: as §3
# southern crabgrass [9] = test: Test Example 4: herbicidal effect by soil treatment (Table 19, symbol F); type: in vivo, southern crabgrass (Digitaria ciliaris)
# Summary of the method: as §3
# persian speedwell [10] = test: Test Example 4: herbicidal effect by soil treatment (Table 19, symbol R); type: in vivo, Persian speedwell (Veronica persica); conditions: AAH 320 g/ha
# Text: [Test Example 4] Herbicidal Effect Test by Soil Treatment
# Sterilized diluvial soil was placed in a plastic box having a length of 21 cm, a width of 13 cm, and a depth of 7 cm. The seeds of each of southern crabgrass, green foxtail, barnyard grass, wild oat, blackgrass, Italian ryegrass, windgrass, velvetleaf, redroot pigweed, lambsquarters, chickweed, false cleavers, persian speedwell, corn, soybean, rice, wheat, beet, and rapeseed were sowed in a spot-like manner and covered with the soil having a thickness of about 1.5 cm. Subsequently, the emulsion agent of the compound of the present invention prepared according to Formulation Example 2 was diluted with water so as to achieve a predetermined herbicide amount, and the diluted emulsion agent was uniformly applied to the surface of the soil with a small-sized spray. The plastic box was placed in a greenhouse at 25° C. to 30° C. for growth of the plants. Three weeks after the herbicide application, the effect of the herbicide on each plant was evaluated according to the criteria of Test Example 1.
# rice flat sedge = test: Test Example 3: herbicidal effect by foliage application, Wagner pot (Table 18, symbol E); type: in vivo, rice flat sedge (Cyperus iria); conditions: 320 g/ha
# Summary of the method: as §2
# wild oat [11] = test: Test Example 4: herbicidal effect by soil treatment (Table 19, symbol I); type: in vivo, wild oat (Avena fatua)
# Summary of the method: as §3
# Italian ryegrass [12] = test: Test Example 5: herbicidal effect by foliage application, plastic box (Table 20, symbol K); type: in vivo, Italian ryegrass (Lolium multiflorum)
# Summary of the method: as §1
# Chinese sprangletop = test: Test Example 3: herbicidal effect by foliage application, Wagner pot (Table 18, symbol D); type: in vivo, chinese sprangletop (Leptochloa chinensis); conditions: 320 g/ha
# Summary of the method: as §2
# velvetleaf [13] = test: Test Example 4: herbicidal effect by soil treatment (Table 19, symbol M); type: in vivo, velvetleaf (Abutilon theophrasti)
# Summary of the method: as §3
# chickweed [14] = test: Test Example 4: herbicidal effect by soil treatment (Table 19, symbol P); type: in vivo, common chickweed (Stellaria media)
# Summary of the method: as §3
# chickweed [15] = test: Test Example 5: herbicidal effect by foliage application, plastic box (Table 20, symbol P); type: in vivo, common chickweed (Stellaria media)
# Summary of the method: as §1
# windgrass [16] = test: Test Example 5: herbicidal effect by foliage application, plastic box (Table 20, symbol L); type: in vivo, windgrass (Apera spica-venti)
# Summary of the method: as §1
# redroot pigweed [17] = test: Test Example 5: herbicidal effect by foliage application, plastic box (Table 20, symbol N); type: in vivo, redroot pigweed (Amaranthus retroflexus)
# Summary of the method: as §1
# southern crabgrass [18] = test: Test Example 5: herbicidal effect by foliage application, plastic box (Table 20, symbol F); type: in vivo, southern crabgrass (Digitaria ciliaris)
# Summary of the method: as §1
# green foxtail [19] = test: Test Example 5: herbicidal effect by foliage application, plastic box (Table 20, symbol G); type: in vivo, green foxtail (Setaria viridis)
# Summary of the method: as §1
# lambsquarters [20] = test: Test Example 5: herbicidal effect by foliage application, plastic box (Table 20, symbol O); type: in vivo, lambsquarters (Chenopodium album)
# Summary of the method: as §1
# wild oat [21] = test: Test Example 5: herbicidal effect by foliage application, plastic box (Table 20, symbol I); type: in vivo, wild oat (Avena fatua)
# Summary of the method: as §1
# barnyard grass [22] = test: Test Example 5: herbicidal effect by foliage application, plastic box (Table 20, symbol H); type: in vivo, barnyard grass (Echinochloa crus-galli)
# Summary of the method: as §1
# blackgrass [23] = test: Test Example 5: herbicidal effect by foliage application, plastic box (Table 20, symbol J); type: in vivo, blackgrass (Alopecurus myosuroides)
# Summary of the method: as §1
# blackgrass [24] = test: Test Example 4: herbicidal effect by soil treatment (Table 19, symbol J); type: in vivo, blackgrass (Alopecurus myosuroides); conditions: amount of applied herbicide 320 g/ha
# Summary of the method: as §3
# windgrass [25] = test: Test Example 4: herbicidal effect by soil treatment (Table 19, symbol L); type: in vivo, windgrass (Apera spica-venti); conditions: amount of applied herbicide 320 g/ha
# Summary of the method: as §3
# [26] = foliage application, AAH 320 g/ha, three weeks after application
# [27] = 320 g/ha, foliage application after 14-day growth, evaluated three weeks after application
# [28] = amount of applied herbicide 320 g/ha
compound,measurement,setting,value
CCCC(=O)Oc1c(C)nn(C)c(=O)c1-c1c(-c2ccc(C(F)(F)F)cc2OC)sc2ccccc12 [1-156],"R: persian speedwell, herbicidal effect",persian speedwell [1]; [26],3 (Herbicidal rate of 40% or more and less than 70%)
same,"M: velvetleaf, herbicidal effect",velvetleaf [2]; [26],0 (Herbicidal rate of 5% or less (almost no effect))
same,"herbicidal effect on H (barnyard grass), rating 0-5",barnyard grass [3],3 (Herbicidal rate of 40% or more and less than 70%)
same,"O: lambsquarters, herbicidal effect rating",lambsquarters [4]; AAH 320 g/ha,3 (Herbicidal rate of 40% or more and less than 70%)
same,"H: barnyard grass, herbicidal effect rating",barnyard grass [5]; AAH 320 g/ha,0 (Herbicidal rate of 5% or less (almost no effect))
same,"G: green foxtail, herbicidal effect rating",green foxtail [6]; AAH 320 g/ha,0 (Herbicidal rate of 5% or less (almost no effect))
same,"N: redroot pigweed, herbicidal effect rating",redroot pigweed [7]; AAH 320 g/ha,0 (Herbicidal rate of 5% or less (almost no effect))
same,"K: Italian ryegrass, herbicidal effect rating",Italian ryegrass [8]; AAH 320 g/ha,3 (Herbicidal rate of 40% or more and less than 70%)
same,"F: southern crabgrass, herbicidal effect rating",southern crabgrass [9]; AAH 320 g/ha,0 (Herbicidal rate of 5% or less (almost no effect))
same,"R: persian speedwell, herbicidal effect rating",persian speedwell [10],0 (Herbicidal rate of 5% or less (almost no effect))
same,"herbicidal effect on E (rice flat sedge), rating 0-5",rice flat sedge,3 (Herbicidal rate of 40% or more and less than 70%)
same,"I: wild oat, herbicidal effect rating",wild oat [11]; AAH 320 g/ha,0 (Herbicidal rate of 5% or less (almost no effect))
same,"K: Italian ryegrass, herbicidal effect",Italian ryegrass [12]; [26],4 (Herbicidal rate of 70% or more and less than 90%)
same,"herbicidal effect on D (Chinese sprangletop), rating 0-5",Chinese sprangletop,3 (Herbicidal rate of 40% or more and less than 70%)
same,"M: velvetleaf, herbicidal effect rating",velvetleaf [13]; AAH 320 g/ha,0 (Herbicidal rate of 5% or less (almost no effect))
same,"P: chickweed, herbicidal effect rating",chickweed [14]; AAH 320 g/ha,0 (Herbicidal rate of 5% or less (almost no effect))
same,"P: chickweed, herbicidal effect",chickweed [15]; [26],5 (Herbicidal rate of 90% or more (almost completely withered))
same,"L: windgrass, herbicidal effect",windgrass [16]; [26],5 (Herbicidal rate of 90% or more (almost completely withered))
same,"N: redroot pigweed, herbicidal effect",redroot pigweed [17]; [26],3 (Herbicidal rate of 40% or more and less than 70%)
same,"F: southern crabgrass, herbicidal effect",southern crabgrass [18]; [26],0 (Herbicidal rate of 5% or less (almost no effect))
same,"G: green foxtail, herbicidal effect",green foxtail [19]; [26],3 (Herbicidal rate of 40% or more and less than 70%)
same,"O: lambsquarters, herbicidal effect",lambsquarters [20]; [26],2 (Herbicidal rate of 20% or more and less than 40%)
same,"I: wild oat, herbicidal effect",wild oat [21]; [26],3 (Herbicidal rate of 40% or more and less than 70%)
same,"H: barnyard grass, herbicidal effect",barnyard grass [22]; [26],1 (Herbicidal rate of 5% or more and less than 20%)
same,"J: blackgrass, herbicidal effect",blackgrass [23]; [26],0 (Herbicidal rate of 5% or less (almost no effect))
Cc1nn(C)c(=O)c(-c2c(-c3ccccc3F)sc3c(Cl)cccc23)c1O [4-058],"Herbicidal effect by soil treatment, J: blackgrass",blackgrass [24],0 (Herbicidal rate of 5% or less (almost no effect))
same,herbicidal effect on R: persian speedwell (evaluation grade 0-5),persian speedwell [1]; [27],5 (Herbicidal rate of 90% or more (almost completely withered))
same,herbicidal effect on M: velvetleaf (evaluation grade 0-5),velvetleaf [2]; [27],1 (Herbicidal rate of 5% or more and less than 20%)
same,herbicidal effect on barnyard grass (H),barnyard grass [3],4 (Herbicidal rate of 70% or more and less than 90%)
same,"Herbicidal effect by soil treatment, O: lambsquarters",lambsquarters [4]; [28],0 (Herbicidal rate of 5% or less (almost no effect))
same,"Herbicidal effect by soil treatment, H: barnyard grass",barnyard grass [5]; [28],0 (Herbicidal rate of 5% or less (almost no effect))
same,"Herbicidal effect by soil treatment, G: green foxtail",green foxtail [6]; [28],0 (Herbicidal rate of 5% or less (almost no effect))
same,"Herbicidal effect by soil treatment, N: redroot pigweed",redroot pigweed [7]; [28],0 (Herbicidal rate of 5% or less (almost no effect))
same,"Herbicidal effect by soil treatment, L: windgrass",windgrass [25],0 (Herbicidal rate of 5% or less (almost no effect))
same,"Herbicidal effect by soil treatment, K: Italian ryegrass",Italian ryegrass [8]; [28],2 (Herbicidal rate of 20% or more and less than 40%)
same,"Herbicidal effect by soil treatment, F: southern crabgrass",southern crabgrass [9]; [28],0 (Herbicidal rate of 5% or less (almost no effect))
same,herbicidal effect on rice flat sedge (E),rice flat sedge,3 (Herbicidal rate of 40% or more and less than 70%)
same,"Herbicidal effect by soil treatment, I: wild oat",wild oat [11]; [28],0 (Herbicidal rate of 5% or less (almost no effect))
same,herbicidal effect on K: Italian ryegrass (evaluation grade 0-5),Italian ryegrass [12]; [27],3 (Herbicidal rate of 40% or more and less than 70%)
same,herbicidal effect on Chinese sprangletop (D),Chinese sprangletop,3 (Herbicidal rate of 40% or more and less than 70%)
same,"Herbicidal effect by soil treatment, M: velvetleaf",velvetleaf [13]; [28],0 (Herbicidal rate of 5% or less (almost no effect))
same,"Herbicidal effect by soil treatment, P: chickweed",chickweed [14]; [28],5 (Herbicidal rate of 90% or more (almost completely withered))
same,herbicidal effect on P: chickweed (evaluation grade 0-5),chickweed [15]; [27],5 (Herbicidal rate of 90% or more (almost completely withered))
same,herbicidal effect on L: windgrass (evaluation grade 0-5),windgrass [16]; [27],4 (Herbicidal rate of 70% or more and less than 90%)
same,herbicidal effect on N: redroot pigweed (evaluation grade 0-5),redroot pigweed [17]; [27],3 (Herbicidal rate of 40% or more and less than 70%)
same,herbicidal effect on F: southern crabgrass (evaluation grade 0-5),southern crabgrass [18]; [27],2 (Herbicidal rate of 20% or more and less than 40%)
same,herbicidal effect on G: green foxtail (evaluation grade 0-5),green foxtail [19]; [27],0 (Herbicidal rate of 5% or less (almost no effect))
same,herbicidal effect on O: lambsquarters (evaluation grade 0-5),lambsquarters [20]; [27],2 (Herbicidal rate of 20% or more and less than 40%)
same,herbicidal effect on I: wild oat (evaluation grade 0-5),wild oat [21]; [27],0 (Herbicidal rate of 5% or less (almost no effect))
same,herbicidal effect on H: barnyard grass (evaluation grade 0-5),barnyard grass [22]; [27],0 (Herbicidal rate of 5% or less (almost no effect))
same,herbicidal effect on J: blackgrass (evaluation grade 0-5),blackgrass [23]; [27],0 (Herbicidal rate of 5% or less (almost no effect))
